pIC50: −log10 of the molar value.
Experiments:
[1] = molecular target: Beta-lactamase (Pseudomonas aeruginosa (strain ATCC 15692 / PAO1 / 1C / PRS 101 / LMG12228)) (UniProt P24735); experiment: Inhibition of Pseudomonas aeruginosa beta-lactamase AmpC at 2 uM
[2] = molecular target: Beta-lactamase (Acinetobacter baumannii, UniProt Q8RLA6); experiment: Inhibition of Acinetobacter baumannii beta-lactamase OXA40
[3] = molecular target: Beta-lactamase SHV-5 (Klebsiella pneumoniae, UniProt P0A3M1); experiment: Inhibition of Klebsiella pneumoniae beta-lactamase SHV5
[4] = Inhibition of Pseudomonas aeruginosa beta-lactamase TEM-1
[5] = molecular target: Beta-lactamase (Enterobacter cloacae, UniProt P05364); experiment: Inhibition of Enterobacter colacae P99 Beta-lactamase
[6] = molecular target: Beta-lactamase (Pseudomonas aeruginosa (strain ATCC 15692 / PAO1 / 1C / PRS 101 / LMG12228), UniProt P24735); experiment: Inhibition of Pseudomonas aeruginosa beta-lactamase AmpC
[7] = molecular target: Beta-lactamase (Pseudomonas aeruginosa (strain ATCC 15692 / PAO1 / 1C / PRS 101 / LMG12228)) (UniProt P24735); experiment: Inhibition of Pseudomonas aeruginosa beta-lactamase AmpC at 0.8 uM

Beta-lactamase (Pseudomonas aeruginosa (strain ATCC 15692 / PAO1 / 1C / PRS 101 / LMG12228)), sequence (P24735 27-397 limits assumed): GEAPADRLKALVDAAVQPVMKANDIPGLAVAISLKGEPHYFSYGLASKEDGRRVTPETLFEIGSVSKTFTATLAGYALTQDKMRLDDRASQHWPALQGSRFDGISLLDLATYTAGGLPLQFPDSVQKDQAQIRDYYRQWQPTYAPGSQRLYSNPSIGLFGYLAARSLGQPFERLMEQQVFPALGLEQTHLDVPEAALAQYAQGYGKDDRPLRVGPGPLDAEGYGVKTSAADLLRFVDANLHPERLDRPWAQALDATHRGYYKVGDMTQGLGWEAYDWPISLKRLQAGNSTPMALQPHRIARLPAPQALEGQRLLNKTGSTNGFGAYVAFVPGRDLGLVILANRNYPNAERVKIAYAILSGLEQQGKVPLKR
Beta-lactamase (Acinetobacter baumannii, UniProt Q8RLA6), sequence (Q8RLA6 whole entry): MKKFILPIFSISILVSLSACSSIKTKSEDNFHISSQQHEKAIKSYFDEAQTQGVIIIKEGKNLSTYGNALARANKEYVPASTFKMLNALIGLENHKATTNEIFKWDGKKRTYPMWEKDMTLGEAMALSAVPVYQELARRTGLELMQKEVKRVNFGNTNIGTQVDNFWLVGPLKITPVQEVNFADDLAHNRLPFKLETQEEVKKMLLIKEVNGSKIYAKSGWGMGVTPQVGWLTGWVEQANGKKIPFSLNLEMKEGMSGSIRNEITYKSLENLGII
Beta-lactamase (Enterobacter cloacae, UniProt P05364), sequence (P05364 whole entry): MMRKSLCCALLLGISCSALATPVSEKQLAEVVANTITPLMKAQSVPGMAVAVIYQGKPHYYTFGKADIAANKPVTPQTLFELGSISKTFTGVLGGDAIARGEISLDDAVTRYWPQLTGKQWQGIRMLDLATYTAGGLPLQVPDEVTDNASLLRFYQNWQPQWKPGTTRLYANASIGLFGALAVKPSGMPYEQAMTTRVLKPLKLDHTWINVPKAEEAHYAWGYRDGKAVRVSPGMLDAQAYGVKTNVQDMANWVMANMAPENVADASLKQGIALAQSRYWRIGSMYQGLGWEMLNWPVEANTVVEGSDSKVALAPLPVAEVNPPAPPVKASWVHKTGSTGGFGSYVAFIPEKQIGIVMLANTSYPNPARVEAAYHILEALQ
Beta-lactamase (Pseudomonas aeruginosa (strain ATCC 15692 / PAO1 / 1C / PRS 101 / LMG12228), UniProt P24735), sequence (P24735 whole entry): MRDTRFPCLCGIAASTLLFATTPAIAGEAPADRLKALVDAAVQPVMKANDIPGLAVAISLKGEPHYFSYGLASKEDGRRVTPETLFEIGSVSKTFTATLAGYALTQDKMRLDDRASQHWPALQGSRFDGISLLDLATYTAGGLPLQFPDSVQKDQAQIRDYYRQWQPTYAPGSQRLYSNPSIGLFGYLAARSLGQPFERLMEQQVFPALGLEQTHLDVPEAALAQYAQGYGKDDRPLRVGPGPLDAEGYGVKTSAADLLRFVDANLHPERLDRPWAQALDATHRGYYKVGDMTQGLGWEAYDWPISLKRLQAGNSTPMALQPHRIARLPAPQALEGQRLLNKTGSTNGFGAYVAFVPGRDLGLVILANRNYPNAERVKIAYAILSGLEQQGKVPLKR
Beta-lactamase SHV-5, sequence (P0A3M1 whole entry): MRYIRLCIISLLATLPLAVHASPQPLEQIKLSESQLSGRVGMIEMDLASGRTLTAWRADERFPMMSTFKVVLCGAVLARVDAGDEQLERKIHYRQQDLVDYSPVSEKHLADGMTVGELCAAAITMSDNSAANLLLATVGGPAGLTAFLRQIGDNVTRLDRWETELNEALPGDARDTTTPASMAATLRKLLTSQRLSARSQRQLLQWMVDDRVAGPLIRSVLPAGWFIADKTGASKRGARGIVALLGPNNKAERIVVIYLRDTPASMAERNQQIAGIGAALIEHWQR

| inhibition [1] [%] | SMILES | other results |
| --- | --- | --- |
| 9 | O=C(O)C1CCN1S(=O)(=O)c1cc(Cl)cc(Cl)c1 (configuration not stated) | – |
| 19 | O=C(CC(=O)C(F)(F)F)c1cccnc1 | – |
| 18 | O=C(O)CNS(=O)(=O)c1ccc(CCCCC2CCNCC2)cc1 | – |
| – | O=S(=O)(NCB(O)O)c1cc2c(Cl)ccc(Cl)c2s1 | pIC50 [2]: 5.25; pIC50 [3]: 6.24; pIC50 [4]: 5.96; pIC50 [5]: 6.21; pIC50 [6]: 5.92 |
| 4 | N#Cc1cc(Br)cc(S(=O)(=O)NCC(=O)O)c1 | – |
| 5 | O=C(O)C1CCN1S(=O)(=O)c1cccnc1 (configuration not stated) | – |
| -10 | CN(CC(=O)O)S(=O)(=O)c1ccc(N)cc1 | – |
| – | O=S(=O)(NCB(O)O)c1ccccc1 | inhibition [7]: 29% |
| 18 | O=C(O)C1CCCN1S(=O)(=O)c1ccccc1 (configuration not stated) | – |
| 11 | CC(C(=O)c1cccs1)C(=O)C(F)(F)F (configuration not stated) | – |
| 11 | CC(C(=O)c1ccccc1)C(=O)C(F)(F)F (configuration not stated) | – |
| 14 | O=C(CC(=O)C(F)(F)F)c1ccco1 | – |
| 18 | O=C(CC(=O)C(F)(F)F)c1ccccc1 | – |

Source: ChEMBL document CHEMBL1156997, “4,7-Dichloro benzothien-2-yl sulfonylaminomethyl boronic acid: first boronic acid-derived beta-lactamase inhibitor with class A, C, and D activity” (Bioorg Med Chem Lett, 2010)
